Measurements published in ChEMBL document CHEMBL1134893, “Novel 20-carbonate linked prodrugs of camptothecin and 9-aminocamptothecin designed for activation by tumour-associated plasmin” (2002).

How the values were obtained:
Assay type in all cases: functional
Conditions in all cases: read-out: ID50 (the source's name)
WiDr = test: Inhibitory dose required against WIDR human tumor cell lines
IGROV-1 = test: Inhibitory dose required against IGROV human tumor cell lines
M19-MEL = test: Inhibitory dose required against M19 human tumor cell lines
NCI-H226 = test: Inhibitory dose required against H226 human tumor cell lines
A498 = test: Inhibitory dose required against A498 human tumor cell lines
EVSA-T = test: Inhibitory dose required against EVSA-T human tumor cell lines
MCF7 = test: Inhibitory dose required against MCF-7 human tumor cell lines

SMILES	IC50 (WiDr) [µg/mL]	IC50 (IGROV-1) [µg/mL]	IC50 (M19-MEL) [µg/mL]	IC50 (NCI-H226) [µg/mL]	IC50 (A498) [µg/mL]	IC50 (EVSA-T) [µg/mL]	IC50 (MCF7) [µg/mL]
CC[C@@]1(O)C(=O)OCc2c1cc1n(c2=O)Cc2cc3c(N)cccc3nc2-1 [9-AMINOCAMPTOTHECIN]	< 0.0032	< 0.0032	< 0.024	< 0.007	< 0.01	< 0.0032	< 0.0032
CC[C@@]1(O)C(=O)OCc2c1cc1n(c2=O)Cc2cc3ccccc3nc2-1 [CAMPTOTHECIN]	< 0.0032	< 0.0032	< 0.013	< 0.005	< 0.0032	< 0.0032	< 0.0032
CC[C@@]1(OC(=O)OCc2ccc(NC(=O)[C@H](CCCCN)NC(=O)[C@H](Cc3ccccc3)NC(=O)[C@@H](C)N)cc2)C(=O)OCc2c1cc1n(c2=O)Cc2cc3c(N)cccc3nc2-1.Cl.Cl.Cl	0.007	0.008	0.01	0.021	0.039	0.137	0.019
CC[C@@]1(OC(=O)OCc2ccc(NC(=O)[C@H](CCCCN)NC(=O)[C@H](Cc3ccccc3)NC(=O)[C@@H](C)N)cc2)C(=O)OCc2c1cc1n(c2=O)Cc2cc3ccccc3nc2-1.Cl.Cl	0.022	0.02	0.219	0.111	0.022	0.049	0.01
